In US20260048063A1, “FUSED AMINO PYRIMIDINE COMPOUNDS FOR TREATMENT OF NEURODEGENERATIVE DISORDERS” (Ovid Therapeutics Inc., priority 2024, published 2026):

Columns and labels:
mice [1] = experiment: KA induced ongoing SE, EEG, treatment 2 h after KA; type: in vivo; settings: given IP 2 h after KA
Protocol: EEG recordings and analysis. WT C57Bl/6J adult male mice (12 weeks) were anesthetized with isofluorane and implanted with EEG/EMG electrodes and allowed to recover for 7 days prior to experimentation. […] 2 h following KA administration mice were injected with a saturating concentration of diazepam (DZ) 10 mg/kg (IP) and recordings were extended for a further 60 min. […] LabChart 8 software was used for data analysis. Epileptiform activity was identified by changes in the amplitude of electrographic activity characterized by consistent changes in the power of the Fast Fourier transform (FFT) of the EEG and abnormal activity characterized by periods of rhythmic spiking lasting longer than 30 s (Moore et al., 2017, supra; Silayeva et al., 2015, supra; Sivakumaran et al., J. Neurosci. 35, 8291-8296 (2015)).
To evaluate the potential of KCC2 activators to terminate ongoing SE, the KA model described above was employed. Mice were injected with KA (20 mg/Kg; IP). […] Spectral data were then subjected to FFT and the total EEG power between 1-100 Hz of the 2 h following KA treatment (pre-drug) and 30 min following their injection (post-drug) were compared (FIG. 6B). In mice treated with DZ alone variable effects were observed, from large increases to modest reductions in EEG power, but these effects were not significant (FIG. 6C; pre=1.1±0.2×10^−6, post=4.4±7.4×10^−7 V^2, p=0.214, n=13-14 mice). […]

mice [2] = experiment: TUNEL staining of hippocampal CA1 48 h after KA injection; type: in vivo
Protocol: To determine if KCC2 activators have an impact on the extent of neuronal injury, brain sections from mice that survived for 48 h after KA injection were subjected to Terminal deoxynucleotidyl transferase dUTP nick end (TUNEL) staining to visualize dead cells, and counterstained with DAPI. The number of TUNEL positive cells in the CA1 region of the hippocampus were then compared between treatment groups.

mice [3] = experiment: KA induced SE, EEG, injection directly into the hippocampus; type: in vivo; settings: intrahippocampal pretreatment, DZ 2 h after KA
Protocol: 30 or 60 min later mice were injected with KA (20 mg/kg) and 2 h later with DZ as detailed above.

KCC2-S940A = biological target: T1, KCC2-S940A (Homo sapiens, UniProt Q9H2X9, S963A); experiment: Tl+ flux assay, HEK-293 cells expressing KCC2-S940A; type: cell-based
T1 construct: expressed in transfected cells; host or cells: HEK-293
T1 sequence (Q9H2X9 1-1116 isoform Q9H2X9-2 S940A): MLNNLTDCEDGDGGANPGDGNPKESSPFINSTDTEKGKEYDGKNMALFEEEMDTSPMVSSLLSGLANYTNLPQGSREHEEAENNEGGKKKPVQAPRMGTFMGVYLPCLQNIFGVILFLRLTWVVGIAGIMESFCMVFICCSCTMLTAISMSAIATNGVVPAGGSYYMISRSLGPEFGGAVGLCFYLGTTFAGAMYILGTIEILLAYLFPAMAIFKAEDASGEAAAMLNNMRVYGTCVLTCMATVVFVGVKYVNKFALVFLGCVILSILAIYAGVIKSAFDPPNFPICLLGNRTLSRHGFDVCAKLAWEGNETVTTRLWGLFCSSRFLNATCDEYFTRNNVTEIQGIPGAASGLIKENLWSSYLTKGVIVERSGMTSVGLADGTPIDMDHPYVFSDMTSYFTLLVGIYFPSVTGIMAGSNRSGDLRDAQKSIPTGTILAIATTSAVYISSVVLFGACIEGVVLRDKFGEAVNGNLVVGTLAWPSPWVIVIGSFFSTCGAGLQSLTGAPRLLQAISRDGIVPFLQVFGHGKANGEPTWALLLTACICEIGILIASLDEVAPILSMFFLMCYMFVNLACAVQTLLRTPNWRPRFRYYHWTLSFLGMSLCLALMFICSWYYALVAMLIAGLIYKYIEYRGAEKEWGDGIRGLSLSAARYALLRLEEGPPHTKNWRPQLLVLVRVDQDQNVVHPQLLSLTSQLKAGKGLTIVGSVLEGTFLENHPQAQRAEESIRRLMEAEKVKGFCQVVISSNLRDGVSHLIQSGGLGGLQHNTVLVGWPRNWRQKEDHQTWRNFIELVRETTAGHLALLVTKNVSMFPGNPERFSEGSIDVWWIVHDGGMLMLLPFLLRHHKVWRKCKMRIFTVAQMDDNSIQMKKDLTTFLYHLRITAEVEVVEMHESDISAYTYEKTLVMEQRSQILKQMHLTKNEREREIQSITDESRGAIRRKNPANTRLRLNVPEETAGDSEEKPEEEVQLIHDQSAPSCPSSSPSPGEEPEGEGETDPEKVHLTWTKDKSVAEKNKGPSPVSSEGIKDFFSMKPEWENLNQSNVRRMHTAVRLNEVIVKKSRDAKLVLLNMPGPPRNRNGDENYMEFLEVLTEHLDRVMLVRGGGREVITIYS
Protocol: FLIPR TI Flux assay. HEK-293 cells were washed with HBSS, and then incubated with loading buffer containing TI sensitive fluorescent dye (https://www.moleculardevices.com), 20 μM bumetanide 20 μM ouabain and 2.5 mM probenecid for 1 h at room temperature (RT) under control conditions or with drugs in the dark using a FlexStation 3 microplate reader (Molecular Devices) and imaged […] for 30 min. Stimulus buffer was added containing 5 mM K^+/0.5 mM Tl^+ and cells were imaged every 1.5 over a 190 second time course The initial rate Tl^+ uptake (Relative Fluorescence Units (RFU) per second) was determined following addition of the stimulus buffer as outlined previously (Conway et al., 2017, supra) (Lee et al., 2022, supra).
Several studies have shown that the activity and plasma membrane accumulation of KCC2 is potentiated via phosphorylation of S940, a process mediated by the activity of protein kinase C and protein phosphatase 1 (Lee et al., 2011, supra; Lee et al., J Biol Chem 282, 29777-29784 (2007); Moore et al., Proc. Natl. Acad. Sci. U.S.A. 115, 10166-10171 (2018); Moore et al., Trends Neurosci. 40, 555-571 (2017); Silayeva et al., Proc. Natl. Acad. Sci. U.S.A. 112, 3523-3528 (2015)). […] Compared to KCC2, effects on KCC3, KCC4, and NKCC1 were only seen at concentrations more than 35-fold that of KCC2 (>100 μM) (FIG. 1G).

[4] = PK study, brain and plasma levels by LC-MS/MS; type: in vivo, mice
Protocol: PK studies. […] Plasma and brain samples were rapidly frozen on dry ice.
Drug accumulation in the brain was examined following SC injection (FIG. 4C; 50 mg/kg).

mice [5] = experiment: Kainic acid (KA) induced SE, EEG recording, pretreatment; type: in vivo; settings: 50 mg/kg SC pretreatment; vehicle 4.2±2.4×10^−6
Description: This model was chosen due to the similarities with patients undergoing SE, as KA-induced seizures become refractory to benzodiazepines (BDZs) within minutes (Betjemann and Lowenstein, Lancet Neurol 14, 615-624 (2015); Crawshaw and Cock, (2020a) [Seizure: Eur. J. Epilep. 75 (2020) 145-152] Seizure 80, 282; Lee et al., 2022, supra; Reddy and Kuruba, Int J Mol Sci 14, 18284-18318 (2013)).
EEG recordings and analysis. WT C57Bl/6J adult male mice (12 weeks) were anesthetized with isofluorane and implanted with EEG/EMG electrodes and allowed to recover for 7 days prior to experimentation. […] 2 h following KA administration mice were injected with a saturating concentration of diazepam (DZ) 10 mg/kg (IP) and recordings were extended for a further 60 min. […] LabChart 8 software was used for data analysis. […]
To provide quantitative insights on the effects of KA, raw EEG recordings were subject to Fast-Fourier transformation (8K FFT size, Hann (cosine-bell), 87.50% window overlap) for frequencies between 0-100 Hz 2 h after KA injection (Lee et al., 2022, supra).

mice [6] = settings: in vivo
[7] = tested on: panel of 144 protein kinases; experiment: SelectScreen protein kinase panel; type: biochemical; settings: 144 protein kinases incl. PKC isoforms, OSR1, SPAK, WNK
Protocol: Aliquots of HEK-293 cells expressing KCC2 were exposed to 30 μM SSA, heated from 37-55° C. The remaining level of soluble native KCC2 at each temperature was measured by immunoblotting and normalized to the level seen at 37° C. which was given a value of 1. […] This panel included protein kinase C isoforms, OSR1, SPAK (STK39) and with-no-lysine kinases (WNK), all of which phosphorylate KCC2 on multiple residues to indirectly modify its activity (Kahle et al., 2013, supra; Smalley et al., 2020, supra).

| Structure (SMILES) | mean time to suppression (EEG power reduced to 50%) (mice [1]) | TUNEL positive CA1 cells (mice [2]) | effect of DZ on seizure parameters in pretreated mice (mice [3]) | activity of KCC2-S940A construct (KCC2-S940A) | brain level 8 h later ([4]; 50 mg/kg SC) | time of maximal concentration in the brain ([4]; 50 mg/kg SC) | concentration at 30 min ([4]; mouse, in vivo, 25 mg/kg IV bolus, read-out: accumulation in brain and plasma, third value not assigned) | total EEG power 2 h after KA (pre DZ) (mice [5]) | effects on mouse behavior in the open field (mice [6]) | activity of the kinase panel [7] |
| --- | --- | --- | --- | --- | --- | --- | --- | --- | --- | --- |
| CN1C(=O)CN=C(c2ccccc2)c2cc(Cl)ccc21 [DZ, diazepam] | 32.5 ± 6.7 min | 40.93±3.35 dead cells/ROI |  |  |  |  |  |  |  |  |
| C[C@@H]1CN(c2nc3c(c(Nc4ccc(C5CCCCC5)cc4)n2)COC3)CCO1 [Compound A, (R)—N-(4-cyclohexylphenyl)-2-(2-methylmorpholino)-5,7-dihydrofuro[3,4-d]pyrimidin-4-amine] |  |  | DZ significantly reduced seizure parameters | increased the activity of KCC2-S940A construct | maintained | 4 h | 11.2 µM | 6.9±3.2×10^−7 V^2 | no gross effects on mouse behavior | did not modify the activity |
